According to patent publication US6955818B1, “Pour-on formulations” (Eli Lilly and Company, priority 1999, dated 2005):
“Also recorded” adds a separate entry of the source.

What was measured:
Merino sheep skin = test: Pour-on carrier/vehicle sheep skin irritation studies (histological scoring); assay type: in vivo; conditions: for skin irritancy / histological dermatitis (in words): applied to skin of recently shorn Merino sheep, histology; for Mean skin irritation scores: 1 mL applied to skin of recently shorn Merino sheep, histological score 0-15 (0 no change, 15 very severe damage; normal 2-4, >4 abnormal, >7 very abnormal)
Protocol: Studies were conducted to investigate and characterise the changes occurring in Merino sheep skin following the application of a range of candidate pour-on formulation components in order to discern safe carriers. Chemicals, emollients, wool grease derivatives and a wide range of formulations were applied (in 1 mL volumes) to each of 18 sites on the back and flanks of 15 recently shorn Merino sheep.
In the first study, skin samples were collected at necropsy 3½weeks after application. In subsequent studies, skin samples were collected 2 weeks after application. Standard haematoxylin and eosin stained sections were prepared from each piece of treated skin. A histological scoring system was devised to allow comparison of treatments. Each skin was assessed for the degree of hyperkeratosis, acanthosis and inflammatory cell infiltrate of the superficial dermis and given a rating score from 0–15. A score of 0=no change through to a score of 15 for very severe damage. Normal skin scored 2–4, >4 was abnormal and >7 was very abnormal. Treatments yielding a score ? 4.5 were considered safe. […]

Bovicola ovis [1] = test: Example 3: spinosad in a variety of carriers as pour-on, lice control on sheep housed indoors; assay type: in vivo; conditions: carrier containing spinosad, 0.4 mg/kg, 1 mL/5 kg
Protocol: The aim of this study was to select the most efficacious of a range of eight formulations that were selected on the basis of safety, physical properties, efficacy, cost and theories of dermal insecticide spread.
Each formulation was prepared to provide spinosad at a dose of 0.4 mg/kg and applied at a rate of 1 mL/5 kg of body weight.

[2] = Example 5: diffusion of 14C-zeta-cypermethrin on sheep skin in a variety of carriers; assay type: in vivo; conditions: 1 mL/5 kg on backline of sheep; for spread of zeta-cypermethrin from the backline (in words): carrier with 10 mg/mL 14C-spiked zeta-cypermethrin, wool at 2, 7.5, 15 cm meridians up to day 14
Protocol: This study compared the amount and rate of diffusion of ^14C-labelled zeta-cypermethrin from the dorsal midline of sheep, when applied in wool grease, in an aqueous formulation and in a range of test carriers.
Each formulation was applied to the backline of three sheep at 1 mL/5 kg body weight. Wool was collected from three 12×12-mm squares chosen at random, along meridian lines drawn 2, 7.5 and 15 cm down the side of each sheep from the backline. The wool samples were collected at 1, 2, 4, 8, 11 and 14 days after treatment, and each day's samples were pooled. The clipped areas were also swabbed. At day 14 after treatment, the wool at the site of application was collected and back and perirenal fat samples were collected. The quantity of zeta-cypermethrin in each sample was measured by liquid scintillation counting.

[3] = Example 12: physical characteristics and freezing points of solvents and solvent combinations; assay type: physicochemical; conditions: vehicle alone
Protocol: The physical characteristics of various individual solvents and solvent combinations were determined.

[4] = tested on: Bovicola ovis (highly synthetic pyrethroid (SP) resistant, Hartley strain of lice); test: Example 2: wool grease formulations and IPM with zeta-cypermethrin and spinosad, lice control on sheep; assay type: in vivo; conditions: for efficacy at eight weeks: 2 mL/10 kg
Description: The purposes of this study were to evaluate wool grease as a formulation to deliver spinosad, to determine the dose required to kill 100% of lice in sheep and to evaluate the suitability of the formulation to deliver zeta-cypermethrin, compared with an isopropyl myristate (IPM) formulation.
Sheep were heavily infested with the highly synthetic pyrethroid (SP) resistant, Hartley strain of lice. Sheep were shorn, lice counted and sheep allocated to ten groups of six sheep, each divided into three groups of two per treatment. All sheep were treated at the rate of 2 mL of test formulation/10 kg of body weight. Treatments were, respectively: wool grease only; 2 mg/kg deltamethrin and 4 mg/kg alphacypermethrin in commercial formulations; spinosad in wool grease at 0.08 mg/kg, 0.4 mg/kg, 2 mg/kg and 10 mg/kg; zeta-cypermethrin in wool grease at 0.66 mg/kg and 2 mg/kg; and spinosad in IPM at 0.4 mg/kg. Lice numbers were counted weekly for eight weeks.

[5] = tested on: Bovicola ovis (Hartley, Claremont, susceptible and slightly resistant strains); test: Example 6: zeta-cypermethrin in a variety of carriers, lice control on sheep; assay type: in vivo; conditions: for lice control, susceptible strain (in words): sheep infested with SP-susceptible strain
Protocol: These studies were devised to determine the efficacy of zeta-cypermethrin (at 2 mg/kg of body weight) in several nonaqueous formulations, and a commercial formulation of deltamethrin, on sheep infested with a severely synthetic pyrethroid (SP) resistant (Hartley) strain and a moderately SP resistant (Claremont) strain of Bovicola ovis. Some additional studies were undertaken with susceptible and slightly resistant lice to determine whether zeta-cypermethrin was able to kill lice under optimum conditions.

Bovicola ovis [6] = test: Example 4: therapeutic efficacy and dose titration of spinosad pour-on, sheep housed outdoors; assay type: in vivo; conditions: 1 mL/5 kg
Protocol: This study was carried out to select the dose of spinosad required to eradicate sheep body lice when applied as a pour-on in OP/IPM/OSU (70:15:15) containing 5% oleic acid, and to compare the efficacy of spinosad at 0.4 mg/kg in a suspension concentrate (SC) formulation applied as a pour-on with that of the pour-on organic solvent formulation. The spinosad formulations were applied at 1 mL/5 kg and at 0, 0.2, 0.4, 0.8, 1.6 and 3.2 mg/kg to 6 groups of 6 recently shorn sheep that were housed outdoors for 6 weeks.

[7] = 2 mg/kg (deltamethrin in commercial formulation; zeta-cypermethrin in wool grease)

CCCCCCCCCCC(CO)CCCCCCCC (centres unmarked) [2-octyl-dodecanol]
skin irritancy / histological dermatitis (in words) (Merino sheep skin): highly irritant

CCCCOCCOCCO [DB, diethylene glycol n-butyl ether]
Mean skin irritation scores (Merino sheep skin): 7
skin irritancy / histological dermatitis (in words) (Merino sheep skin): highly irritant

COC(C)COC(C)CO (centres unmarked) [DPM, dipropylene glycol methyl ether]
Mean skin irritation scores (Merino sheep skin): 4
skin irritancy / histological dermatitis (in words) (Merino sheep skin): mild to moderate dermatitis

CC(=O)CC(C)(C)O [Diacetone alcohol]
Mean skin irritation scores (Merino sheep skin): 2
skin irritancy / histological dermatitis (in words) (Merino sheep skin): non-irritant

CCCCCCCCCCCCCC(=O)OC(C)C [IPM, isopropyl myristate]
Mean skin irritation scores (Merino sheep skin): 8
skin irritancy / histological dermatitis (in words) (Merino sheep skin): severe dermatitis
efficacy by the end of the study (Bovicola ovis [1]): about 90%
spread of zeta-cypermethrin from the backline (in words) [2]: greatest spread; also recorded: best spread
skin reaction at the site of application ([2]; carrier with 10 mg/mL zeta-cypermethrin): severe scabbing/crusting of the skin
freezing point [3]: −2 to −6 °C

CCCCCCCCCCCCCCCC(=O)OCCCCCCCC [OP, octyl palmitate]
Mean skin irritation scores (Merino sheep skin): 3.3
skin irritancy / histological dermatitis (in words) (Merino sheep skin): non-irritant
Physical Properties (in words) [3]: spreads, lubricant

CCCCCCCCCCCCCCCCCC(=O)OCCCCCCCC [OS, octyl stearate]
spread of zeta-cypermethrin from the backline (in words) [2]: modest spread; also recorded: better spread
Physical Properties (in words) [3]: spreads, lubricant

CC1(C)C(C=C(Cl)Cl)C1C(=O)OC(C#N)c1cccc(Oc2ccccc2)c1 (centres unmarked) [alphacypermethrin]
efficacy at eight weeks ([4]; 4 mg/kg (alphacypermethrin in commercial formulation)): 9%

CC1(C)[C@H](C(=O)O[C@H](C#N)c2cccc(Oc3ccccc3)c2)[C@@H]1C=C(Br)Br [deltamethrin]
efficacy at eight weeks [4, 7]: 8%

CCCCCCCC/C=C\CCCCCCCC(=O)OC [methyl oleate]
skin irritancy / histological dermatitis (in words) (Merino sheep skin): highly irritant

CC1(C)C(C=C(Cl)Cl)C1C(=O)OC(C#N)c1cccc(Oc2ccccc2)c1 (centres unmarked) [zeta-cypermethrin]
efficacy at eight weeks ([4]; 0.66 mg/kg (zeta-cypermethrin in wool grease)): 0%
efficacy at eight weeks [4, 7]: 43%
lice control compared with the other treatments (in words) ([4]; weekly counts for eight weeks): no significant differences in efficacy at eight weeks; also recorded: better lice control than the commercial pour-ons for the first 5 weeks
lice control, lice with high and moderate resistance to SPs (in words) ([5]; 2 mg/kg zeta-cypermethrin in nonaqueous formulations, commercial deltamethrin, Hartley and Claremont strains): did not give adequate control
lice control, susceptible strain (in words) ([5]; zeta-cypermethrin 2 mg/kg pour-on): did control
lice control, susceptible strain (in words) ([5]; zeta-cypermethrin 2 mg/kg pour-on, listed as Zeta-cypermethrin): eradicated lice
lice control, mildly resistant strain (in words) ([5]; zeta-cypermethrin 2 mg/kg pour-on, sheep infested with mildly resistant strain): excellent control

isocetyl stearate [ICS]
skin irritancy / histological dermatitis (in words) (Merino sheep skin): mild to moderate dermatitis

propylene glycol dicaprylate dicaprate
skin irritancy / histological dermatitis (in words) (Merino sheep skin): highly irritant

spinosad
Efficacy (%) at Day 41 (Bovicola ovis [6]; spinosad 0.2 mg/kg in OP/IPM/OSU (70:15:15) with 5% oleic acid): 37%
Efficacy (%) at Day 41 (Bovicola ovis [6]; spinosad 0.4 mg/kg in OP/IPM/OSU (70:15:15) with 5% oleic acid): 46%
Efficacy (%) at Day 41 (Bovicola ovis [6]; spinosad 0.8 mg/kg in OP/IPM/OSU (70:15:15) with 5% oleic acid): 78%
Efficacy (%) at Day 41 (Bovicola ovis [6]; spinosad 1.6 mg/kg in OP/IPM/OSU (70:15:15) with 5% oleic acid): 37%
Efficacy (%) at Day 41 (Bovicola ovis [6]; spinosad 3.2 mg/kg in OP/IPM/OSU (70:15:15) with 5% oleic acid): 93%
